Values joined by “and” are separate entries in the source; they are usually repeats but may differ in a detail not shown here. Identical values can stand only once. Like-named read-outs stand apart in the source and are kept apart here.
Assays:
WI 38 cells [1] = tested on: WI 38 cells
Procedure: (§1) Cell culture: Human lung cell fibroblasts (WI 38, ATCC-CCL-75) was used for cytopathic effect detection. 10-fold serial dilutions had been made from the concentrated viral suspension. […] Then the media was changed to RPMI with 2% of fetal calf serum, which was preserved during the assay. The cells were incubated in CO2enriched air at 37° C. During the experiments a cell culture of 17th-18^thpassage was used.
(§2) In table 1 the content of each of the 10 vials (Eppendorf) is listed. The vials were incubated in a heater keeping a stable temperature of 37° C. 1000 U of catalase was added after 15, 30 and 60 min of incubation. 2×50 μl from each vial was transferred to duplicate cell wells (a 96-well plate).

WI 38 cells [2] = tested on: WI 38 cells; remark: listed apart in the source
Procedure: (§3) Virus concentration=dil 2. Incubation during 30 min in heater keeping 37° C. After 30 min the effect of the hydrogen peroxide is aborted with the addition of 0.1 ml catalase solution into the vial (=1 kU/ml). • 0.7 ml 5% glucose solution+0.1 ml dil 1 of RV7 (=a7) or RV8 (=a8)+0.1 ml of the hydrogen peroxide solution (=final concentration in the vial=[…]). Incubation and abortion of the hydrogen peroxide effect similar as in a).
(§4) After the addition of catalase, samples are transferred to a 96-well plate with flat bottom according to table 3.

Rhinovirus 7 [3] = tested on: Rhinovirus 7
Procedure: Virus: Rhinovirus 7, purchased from ATCC (VR-1117), was used as a representative for the rhinovirus group. In the assays the dilutions 10^−2 and 10^−3 were used. […] 0.3 ml of each dilution was added into the vials.
as §1
Catalase: From Sigma-Aldrich™. A solution of 100 000 U/ml was prepared from the original solution of 10^6 U/ml.
H2O2: a 20% solution was diluted in Phosphate buffered saline (PBS) to a 0.5% and a 0.05% solution. 0.1 ml was added to the vials, which means 0.05% or 0.005% in the vials.
A solution of 200 U/ml and 600 U/ml was prepared from the original solution of 6000 U/ml.
In order to evaluate whether the effect of the hydrogen peroxide was a direct effect on the virus itself or a cytoprotective effect, we preincubated the virus with the hydrogen peroxide, before it was transferred to the wells with the cells. The WI 38 cells are also sensitive to hydrogen peroxide, and therefore it was necessary to add catalase before inoculation into the wells. […] This design would also reveal if the inhibitory effect was only a virostatic one, or if it could damage the virions irreversibly.
as §2

Rhinovirus 8 = conditions: 50 μl b8: RV8 preincubated 30 min with 0.01% hydrogen peroxide, then catalase
Procedure: as §3
(§5) Altogether 4 vials (Eppendorff): a7, a8, b7 and b8.
as §4

Rhinovirus 7 [4] = conditions: b7: RV7 preincubated 30 min with 0.01% hydrogen peroxide, then catalase
Procedure: as §3, §5, §4

[5] = 0.005% H2O2, RV 7 dil 10^−2, preincubation 15 min
[6] = 0.005% H2O2, RV 7 dil 10^−2, preincubation 30 min
[7] = 0.005% H2O2, RV 7 dil 10^−2, preincubation 60 min
[8] = 0.005% H2O2, RV 7 dil 10^−3, preincubation 15 min
[9] = 0.005% H2O2, RV 7 dil 10^−3, preincubation 30 min
[10] = 0.005% H2O2, RV 7 dil 10^−3, preincubation 60 min
[11] = 0.05% H2O2, RV 7 dil 10^−2, preincubation 15 min
[12] = 0.05% H2O2, RV 7 dil 10^−2, preincubation 30 min
[13] = 0.05% H2O2, RV 7 dil 10^−2, preincubation 60 min
[14] = 0.05% H2O2, RV 7 dil 10^−3, preincubation 15 min
[15] = 0.05% H2O2, RV 7 dil 10^−3, preincubation 30 min
[16] = 0.05% H2O2, RV 7 dil 10^−3, preincubation 60 min

OO [H2O2, hydrogen peroxide]
Day 3 (toxic effect on WI 38 cells, control) (WI 38 cells [1]): TOX
Day 5 (toxic effect on WI 38 cells, control) (WI 38 cells [1]): TOX
Day 7 (toxic effect on WI 38 cells, control) (WI 38 cells [1]): TOX
Toxic effect on WI 38 cells (WI 38 cells [1]): severe toxic effect
Effect on WI 38 cells after 2 days (WI 38 cells [2]): Tox
Effect on WI 38 cells after 10 days (WI 38 cells [2]): tox
Inactivation of RV 7 (Rhinovirus 7 [3]; 0.005% (2 mM) hydrogen peroxide, higher concentration of RV 7): not able to inactivate
Day 3 (cytopathic effect of RV 7 on WI 38 cells) (Rhinovirus 7 [3]; [5]): +
Day 5 (cytopathic effect of RV 7 on WI 38 cells) (Rhinovirus 7 [3]; [5]): ++
Day 7 (cytopathic effect of RV 7 on WI 38 cells) (Rhinovirus 7 [3]; [5]): ++
Day 3 (cytopathic effect of RV 7 on WI 38 cells) (Rhinovirus 7 [3]; [6]): +
Day 5 (cytopathic effect of RV 7 on WI 38 cells) (Rhinovirus 7 [3]; [6]): +
Day 7 (cytopathic effect of RV 7 on WI 38 cells) (Rhinovirus 7 [3]; [6]): ++
Day 3 (cytopathic effect of RV 7 on WI 38 cells) (Rhinovirus 7 [3]; [7]): +
Day 5 (cytopathic effect of RV 7 on WI 38 cells) (Rhinovirus 7 [3]; [7]): +
Day 7 (cytopathic effect of RV 7 on WI 38 cells) (Rhinovirus 7 [3]; [7]): +
Day 3 (cytopathic effect of RV 7 on WI 38 cells) (Rhinovirus 7 [3]; [8]): −
Day 5 (cytopathic effect of RV 7 on WI 38 cells) (Rhinovirus 7 [3]; [8]): +
Day 7 (cytopathic effect of RV 7 on WI 38 cells) (Rhinovirus 7 [3]; [8]): +
Day 3 (cytopathic effect of RV 7 on WI 38 cells) (Rhinovirus 7 [3]; [9]): −
Day 5 (cytopathic effect of RV 7 on WI 38 cells) (Rhinovirus 7 [3]; [9]): −
Day 7 (cytopathic effect of RV 7 on WI 38 cells) (Rhinovirus 7 [3]; [9]): −
Day 3 (cytopathic effect of RV 7 on WI 38 cells) (Rhinovirus 7 [3]; [10]): −
Day 5 (cytopathic effect of RV 7 on WI 38 cells) (Rhinovirus 7 [3]; [10]): −
Day 7 (cytopathic effect of RV 7 on WI 38 cells) (Rhinovirus 7 [3]; [10]): −
Inactivation of RV 7 (Rhinovirus 7 [3]; 0.005% hydrogen peroxide, 60 min of incubation, RV 7 10^−3 dilution): able to inactivate
Inactivation of RV 7 (Rhinovirus 7 [3]; 0.05% (20 mM) H2O2, all RV 7 concentrations, already after 15 min of incubation): able to inactivate
Day 3 (cytopathic effect of RV 7 on WI 38 cells) (Rhinovirus 7 [3]; [11]): −
Day 5 (cytopathic effect of RV 7 on WI 38 cells) (Rhinovirus 7 [3]; [11]): −
Day 7 (cytopathic effect of RV 7 on WI 38 cells) (Rhinovirus 7 [3]; [11]): −
Day 3 (cytopathic effect of RV 7 on WI 38 cells) (Rhinovirus 7 [3]; [12]): −
Day 5 (cytopathic effect of RV 7 on WI 38 cells) (Rhinovirus 7 [3]; [12]): −
Day 7 (cytopathic effect of RV 7 on WI 38 cells) (Rhinovirus 7 [3]; [12]): −
Day 3 (cytopathic effect of RV 7 on WI 38 cells) (Rhinovirus 7 [3]; [13]): −
Day 5 (cytopathic effect of RV 7 on WI 38 cells) (Rhinovirus 7 [3]; [13]): −
Day 7 (cytopathic effect of RV 7 on WI 38 cells) (Rhinovirus 7 [3]; [13]): −
Day 3 (cytopathic effect of RV 7 on WI 38 cells) (Rhinovirus 7 [3]; [14]): −
Day 5 (cytopathic effect of RV 7 on WI 38 cells) (Rhinovirus 7 [3]; [14]): −
Day 7 (cytopathic effect of RV 7 on WI 38 cells) (Rhinovirus 7 [3]; [14]): −
Day 3 (cytopathic effect of RV 7 on WI 38 cells) (Rhinovirus 7 [3]; [15]): −
Day 5 (cytopathic effect of RV 7 on WI 38 cells) (Rhinovirus 7 [3]; [15]): −
Day 7 (cytopathic effect of RV 7 on WI 38 cells) (Rhinovirus 7 [3]; [15]): −
Day 3 (cytopathic effect of RV 7 on WI 38 cells) (Rhinovirus 7 [3]; [16]): −
Day 5 (cytopathic effect of RV 7 on WI 38 cells) (Rhinovirus 7 [3]; [16]): −
Day 7 (cytopathic effect of RV 7 on WI 38 cells) (Rhinovirus 7 [3]; [16]): −
Reversibility of the inactivation of RV 7 (Rhinovirus 7 [3]; Glucose Oxidase or 0.05% hydrogen peroxide solution, 7 days of incubation, no sign of recovery): irreversible
Infection of WI 38 cells after 2 days of inoculation (Rhinovirus 8): 1+
Infection of WI 38 cells after 10 days of inoculation (Rhinovirus 8): 3+
Infection of WI 38 cells after 2 days of inoculation (Rhinovirus 7 [4]): 1+
Infection of WI 38 cells after 10 days of inoculation (Rhinovirus 7 [4]): 1+ and 2+

— US8895282B2, “Use of a substance for manufacturing of a medicament for treatment of common cold” (Tanomed AB, priority 2008, dated 2014)
